Results from publication PMC11183015, “In vivo stable ^211At-labeled prostate-specific membrane antigen-targeted tracer using a neopentyl glycol structure” (EJNMMI Radiopharmacy and Chemistry, 2024).
Marks after values point to notes of the source that are not given here.

Assays:
Format in all cases: in vivo, mouse
[1] = test system: LNCaP cell xenografts; experiment: Biodistribution of radioactivity in tumor-bearing mice; settings: for Radioactivity in Intestine / Radioactivity in Neck / Radioactivity in Stomach: LNCaP tumor-bearing BALB/c-nu/nu mice; for Radioactivity in Blood / Radioactivity in Bone / Radioactivity in Heart / Radioactivity in Kidney / Radioactivity in Liver / Radioactivity in Lung / Radioactivity in Muscle / Radioactivity in Pancreas / Radioactivity in Spleen / Radioactivity in Tumor: male, BALB/c-nu/nu, mouse, in vivo
Protocol: Animal studies were conducted in accordance with the institutional guidelines approved by the Chiba University Animal Care Committee (Permit No. 4–183). Five-week-old male ddY mice and BALB/c-nu/nu mice were purchased from Japan SLC Inc. (Hamamatsu, Japan). LNCaP cells (5.0 × 10^6 cells) were suspended in 100 μL of PBS and Matrigel (BD Biosciences, Franklin Lakes, NJ, USA) in a 1:1 ratio. Tumor xenograft models were prepared via subcutaneous injection of this LNCaP cell suspension into BALB/c nude mice.
Biodistribution studies were conducted using male BALB/c-nu/nu mice bearing LNCaP cell xenografts at 1 and 3 h postinjection of [^211At]At-NpG-D-PSMA (100 µL, 37 kBq) and 1 and 6 h postinjection of ^125I-labeled PSMA derivative (100 µL, 11.1 kBq). In the blocking study, [^125I]I-NpG-D-PSMA was coinjected with 2-PMPA (50 mg/kg weight) into tumor-bearing mice via the tail vein. At 1 h postinjection, the mice were sacrificed. The tissues of interest were excised and weighed, and the radioactivity counts in each tissue were determined using an auto-well gamma counter. Each value was expressed as the mean percent injected dose/g tissue ± SD for a group of 3–5 animals, except those for the stomach, intestine, and thyroid.

[2] = Analysis of radiometabolites in urine by RP-HPLC; settings: normal ddY mice, urine up to 6 h after injection
Protocol: Urine samples were collected from 6-week-old ddY mice 6 h after injection of each ^125I-labeled PSMA derivative (100 µL, 370 kBq). After ethanol precipitation of proteins, the urine samples were filtered through a polycarbonate membrane (0.45 µm) and analyzed by RP-HPLC (System 2).

[3] = Biodistribution of radioactivity in normal mice
Protocol: Six-week-old male ddY mice were injected via the tail vein with each radiolabeled PSMA derivative. Animals were sacrificed and the organs were dissected at 10 min, 1 h, 3 h, and 6 h after injection. Metabolic cages were used for housing normal mice. The tissues of interest were excised and weighed, and the radioactivity counts in each tissue were determined using an auto-well gamma counter. Each value was expressed as the mean percent injected dose/g tissue ± SD for a group of 3–5 animals, except those for the stomach, intestine, and thyroid.

[4] = normal ddY mice, i.v., 6 h, metabolic cages

## O=C(O)CCC(NC(=O)NC(CCCCNC(=O)C(Cc1ccc2ccccc2c1)NC(=O)C(CCC(=O)O)NC(=O)C(CCC(=O)O)NC(=O)COCC(CO)(CO)C[125I])C(=O)O)C(=O)O [[^125I]I-NpG-L-PSMA]
[1]; 1 h
  Radioactivity in Intestine: 2.52 ± 0.29^a %ID
  Radioactivity in Neck: 0.45 ± 0.13^a %ID
  Radioactivity in Stomach: 0.23 ± 0.04 %ID
  Radioactivity in Blood: 0.66 ± 0.18 %ID/g
  Radioactivity in Bone: 0.47 ± 0.12^a %ID/g
  Radioactivity in Heart: 1.62 ± 0.87 %ID/g
  Radioactivity in Kidney: 223 ± 5.91^a %ID/g
  Radioactivity in Liver: 1.85 ± 0.50^a %ID/g
  Radioactivity in Lung: 2.78 ± 0.93 %ID/g
  Radioactivity in Muscle: 0.64 ± 0.21^a %ID/g
  Radioactivity in Pancreas: 1.17 ± 0.38 %ID/g
  Radioactivity in Spleen: 37.0 ± 10.4 %ID/g
  Radioactivity in Tumor: 9.19 ± 1.89^a %ID/g
[1]; 6 h
  Radioactivity in Intestine: 1.87 ± 0.41 %ID
  Radioactivity in Neck: 3.19 ± 1.28 %ID
  Radioactivity in Stomach: 0.15 ± 0.07 %ID
  Radioactivity in Blood: 0.11 ± 0.03^a %ID/g
  Radioactivity in Bone: 0.09 ± 0.02 %ID/g
  Radioactivity in Heart: 0.22 ± 0.06^a %ID/g
  Radioactivity in Kidney: 226 ± 30.0 %ID/g
  Radioactivity in Liver: 0.44 ± 0.02^a %ID/g
  Radioactivity in Lung: 0.59 ± 0.12^a %ID/g
  Radioactivity in Muscle: 0.27 ± 0.31 %ID/g
  Radioactivity in Pancreas: 0.26 ± 0.08^a %ID/g
  Radioactivity in Spleen: 4.55 ± 1.18^a %ID/g
  Radioactivity in Tumor: 11.0 ± 2.68^a %ID/g
[2]
  Form of radioactivity excreted in urine: intact [^125I]I-NpG-L-PSMA and as radiometabolites
[3]; normal ddY mice, i.v., 10 min
  Radioactivity in Blood: 1.48 ± 0.20^b %ID/g
  Radioactivity in Bone: 0.68 ± 0.18^a %ID/g
  Radioactivity in Heart: 1.12 ± 0.24 %ID/g
  Radioactivity in Intestine: 2.49 ± 0.66 %ID
  Radioactivity in Kidney: 92.3 ± 11.0^b %ID/g
  Radioactivity in Liver: 1.64 ± 0.33^a %ID/g
  Radioactivity in Lung: 2.15 ± 0.49^a %ID/g
  Radioactivity in Muscle: 0.62 ± 0.18^a %ID/g
  Radioactivity in Neck: 0.34 ± 0.09^a %ID
  Radioactivity in Pancreas: 0.80 ± 0.16 %ID/g
  Radioactivity in Spleen: 2.23 ± 1.10 %ID/g
  Radioactivity in Stomach: 0.33 ± 0.09 %ID
[3]; normal ddY mice, i.v., 1 h
  Radioactivity in Blood: 0.26 ±0.01 %ID/g
  Radioactivity in Bone: 0.36 ± 0.43 %ID/g
  Radioactivity in Heart: 0.60 ± 0.37 %ID/g
  Radioactivity in Intestine: 3.40 ± 0.86^a %ID
  Radioactivity in Kidney: 113.6 ±3.86^ab %ID/g
  Radioactivity in Liver: 0.99 ± 0.14^ab %ID/g
  Radioactivity in Lung: 0.69 ± 0.16^ab %ID/g
  Radioactivity in Muscle: 0.14 ± 0.03 %ID/g
  Radioactivity in Neck: 0.07 ± 0.03^a %ID
  Radioactivity in Pancreas: 1.40 ± 1.78 %ID/g
  Radioactivity in Spleen: 1.05 ± 0.19^ab %ID/g
  Radioactivity in Stomach: 0.35 ± 0.30 %ID
[3]; normal ddY mice, i.v., 3 h
  Radioactivity in Blood: 0.04 ± 0.01 %ID/g
  Radioactivity in Bone: 0.09 ± 0.04 %ID/g
  Radioactivity in Heart: 0.06 ± 0.01 %ID/g
  Radioactivity in Intestine: 4.96 ± 0.17^ab %ID
  Radioactivity in Kidney: 38.6 ± 11.9^a %ID/g
  Radioactivity in Liver: 0.43 ± 0.01^ab %ID/g
  Radioactivity in Lung: 0.21 ± 0.03^ab %ID/g
  Radioactivity in Muscle: 0.10 ± 0.05 %ID/g
  Radioactivity in Neck: 0.01 ± 0.00 %ID
  Radioactivity in Pancreas: 0.12 ± 0.03 %ID/g
  Radioactivity in Spleen: 0.22 ± 0.07^ab %ID/g
  Radioactivity in Stomach: 0.08 ± 0.02^b %ID
[3]; normal ddY mice, i.v., 6 h
  Radioactivity in Blood: 0.03 ± 0.02 %ID/g
  Radioactivity in Bone: 0.05 ± 0.01 %ID/g
  Radioactivity in Heart: 0.05 ± 0.05 %ID/g
  Radioactivity in Intestine: 4.60 ± 2.56 %ID
  Radioactivity in Kidney: 21.2 ± 9.70^a %ID/g
  Radioactivity in Liver: 0.53 ±0.02^ab %ID/g
  Radioactivity in Lung: 0.09 ± 0.03^a %ID/g
  Radioactivity in Muscle: 0.05 ± 0.01 %ID/g
  Radioactivity in Neck: 0.02 ± 0.01 %ID
  Radioactivity in Pancreas: 0.07 ± 0.04 %ID/g
  Radioactivity in Spleen: 0.11 ± 0.03^a %ID/g
  Radioactivity in Stomach: 0.23 ± 0.29 %ID
[3]; [4]
  Radioactivity in Feces: 0.45 ± 0.48 %ID
  Radioactivity in Urine: 53.3 ± 5.56 %ID
[3]; normal mice
  Accumulation in the stomach and thyroid (stability against deiodination): low accumulation
